In article PMC11859031, “Assessment of the In Vitro Biological Activities of Schiff Base-Synthesized Copper Oxide Nanoparticles as an Anti-Diabetic, Anti-Alzheimer, and Anti-Cancer Agent” (Pharmaceutics, 2025):

How the values were obtained:
COX-1 = molecular target: T1, COX-1 (Ovis aries, UniProt P05979); assay: COX-1 inhibition assay (Cayman kit); format: biochemical, ovine; conditions: mean ± SE, n = 3
T1 construct: purchased Cayman 560131
T1 sequence (P05979 25-600): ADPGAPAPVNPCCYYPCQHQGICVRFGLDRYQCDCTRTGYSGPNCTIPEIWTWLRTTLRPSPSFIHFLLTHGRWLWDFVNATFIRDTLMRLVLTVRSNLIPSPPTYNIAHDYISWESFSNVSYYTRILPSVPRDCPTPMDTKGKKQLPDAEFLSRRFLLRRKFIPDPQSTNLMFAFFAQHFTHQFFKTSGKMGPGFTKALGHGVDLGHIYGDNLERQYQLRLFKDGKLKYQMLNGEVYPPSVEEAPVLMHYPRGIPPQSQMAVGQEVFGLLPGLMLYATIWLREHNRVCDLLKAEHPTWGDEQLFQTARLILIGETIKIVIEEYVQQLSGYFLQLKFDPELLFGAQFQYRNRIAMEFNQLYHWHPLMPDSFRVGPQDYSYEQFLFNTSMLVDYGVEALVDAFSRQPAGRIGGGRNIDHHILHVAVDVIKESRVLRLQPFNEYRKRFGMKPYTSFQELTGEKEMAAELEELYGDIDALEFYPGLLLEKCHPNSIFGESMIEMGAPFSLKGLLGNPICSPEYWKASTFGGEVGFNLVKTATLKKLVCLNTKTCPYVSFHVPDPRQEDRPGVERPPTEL

DPPH radical scavenging = conditions: mean ± SE, n = 3
Experimental: The 1,1-Diphenyl-2-picryl-hydrazyl (DPPH) radical scavenging activities were evaluated using the method described by Rahman et al. An antioxidant substance capable of donating a hydrogen atom to a solution containing DPPH- can reduce the stable free radical, causing the solution to change color from violet to pale yellow.
The remaining DPPH- radical was quantified by measuring the intensity of a light-purple colored DPPH methanol solution in the visible range at 518 nm using a spectroscopic method. Two mill iliters of a DPPH solution (100 µ M) in ethanol were mixed with 2 mL of the sample (at each concentration). The reaction mixture for each concentration was thoroughly vortexed and then incubated in the dark at room temperature for 30 minutes. The absorbance was then measured spectrophotometrically at 518 nm against a blank (ethanol). For the control, 2 mL of ethanol was added instead of the sample and run simultaneously with the test.
Ascorbic acid was used at the same concentrations as a positive control. P ercent […]
inhibition of the DPPH free radical was calculated. […]

Cc1nn(-c2ccccc2)c(Cl)c1C=NN=C1C(=O)Nc2ccccc21 [SB]
inhibition at 100 µg/mL (COX-1; at 100 µg/mL, read-out: COX-1 Inhib. (%)): 31.61 ± 0.18%
IC50 (COX-1): 27.1 µM
Scavenging activity DPPH Inhib. (%) (DPPH radical scavenging; at 100 µg/mL): 44.54 ± 0.18%
Scavenging activity DPPH IC50 (DPPH radical scavenging): 6.24 ± 0.01 µg/mL
